Patent US5952328A, “Benzothiazo and related heterocyclic group-containing cysteine and serine protease inhibitors” (Cephalon, Inc., priority 1997, dated 1999)

What follows are compounds tested against T1, Calpain I (Homo sapiens, UniProt P07384) (assay: Inhibition of calpain I activity (Succ-Leu-Tyr-MNA substrate hydrolysis, fluorescence)). Conditions: Example 187, in text; bisulfite addition compound; read-out: IC50 (calpain).
T1 construct: made in house
T1 sequence (P07384 1-714): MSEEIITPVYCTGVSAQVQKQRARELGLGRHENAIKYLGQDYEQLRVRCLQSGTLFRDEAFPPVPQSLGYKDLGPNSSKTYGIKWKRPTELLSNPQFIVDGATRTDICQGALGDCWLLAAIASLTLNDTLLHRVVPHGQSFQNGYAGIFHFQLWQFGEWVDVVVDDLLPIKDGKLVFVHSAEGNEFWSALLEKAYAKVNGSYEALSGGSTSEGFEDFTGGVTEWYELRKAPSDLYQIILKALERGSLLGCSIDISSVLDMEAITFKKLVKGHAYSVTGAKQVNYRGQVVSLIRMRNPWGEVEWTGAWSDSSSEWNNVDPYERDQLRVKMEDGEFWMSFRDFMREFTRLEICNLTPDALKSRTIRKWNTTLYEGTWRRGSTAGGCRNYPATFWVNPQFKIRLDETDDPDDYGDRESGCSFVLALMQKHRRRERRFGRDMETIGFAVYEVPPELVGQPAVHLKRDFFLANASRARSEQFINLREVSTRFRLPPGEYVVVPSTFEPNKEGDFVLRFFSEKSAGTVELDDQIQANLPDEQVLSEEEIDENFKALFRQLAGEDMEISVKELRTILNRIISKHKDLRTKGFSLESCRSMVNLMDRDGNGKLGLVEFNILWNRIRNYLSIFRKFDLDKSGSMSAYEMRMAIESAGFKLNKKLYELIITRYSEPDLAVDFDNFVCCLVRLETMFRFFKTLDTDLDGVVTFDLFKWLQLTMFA
T1 sequence (P04632 1-268 partner): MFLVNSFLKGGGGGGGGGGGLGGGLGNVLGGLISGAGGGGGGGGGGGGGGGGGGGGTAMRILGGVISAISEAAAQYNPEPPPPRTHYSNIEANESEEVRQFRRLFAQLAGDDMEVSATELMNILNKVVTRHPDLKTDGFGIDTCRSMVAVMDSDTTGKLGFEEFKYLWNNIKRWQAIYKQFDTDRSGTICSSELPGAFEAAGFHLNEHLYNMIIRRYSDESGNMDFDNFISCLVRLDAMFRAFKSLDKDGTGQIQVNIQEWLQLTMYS
Assay type: biochemical
Protocol: To evaluate inhibitory activity, stock solutions (40 times concentrated) of each compound to be tested were prepared in 100% anhydrous DMSO and […] of each inhibitor preparation were aliquoted into each of three wells of a 96-well plate. Calpain I, prepared by a modification of the method of W. J. Lee et al. (Biochem. […] To start the reaction, […] of 50 mM CaCl2 in assay buffer was added to each of the wells of the plate, excepting three, which were used as background signal baseline controls. Substrate hydrolysis was monitored every 5 minutes for a total of 30 minutes using a Fluoroskan II fluorescence plate reader. […] Inhibition of calpain I activity was calculated as the percent decrease in the rate of substrate hydrolysis in the presence of inhibitor relative to the rate in its absence. Comparison between the inhibited and control rates was made within the linear range for substrate hydrolysis. For screening, compounds were tested at […]. […] The results were plotted as percent inhibition versus log inhibitor concentration, and the IC50 was calculated from linear regression of the data.

For `CCN1C(C(=O)N[C@@H](Cc2ccccc2)C(O)S(=O)(=O)O)Cc2cc3c(cc2S1(=O)=O)OCCO3` (stereo partly drawn) [Example 187, N-(3,4-Dihydro-6,7-ethylenedioxy-2-ethyl-2H-1,2-benzothiazine-3-carbonyl)-L-phenylalaninal 1,1-dioxide, bisulfite addition compound], the IC50 was 0.008 µM.

Same assay, conditions: Table II; calpain I, 0.2 mM Succ-Leu-Tyr-MNA, pH 7.5; * mixture of diastereomers, a,b single diastereomers; read-out: IC50

Going from `CC(C)N1C(C(=O)N[C@H](C=O)Cc2ccccc2)Cc2cc3c(cc2S1(=O)=O)OCCO3` (stereo partly drawn) [Cpd 12u, N-(3,4-Dihydro-6,7-ethylenedioxy-2-isopropyl-2H-1,2-benzothiazine-3-carbonyl)-L-phenylalaninal 1,1-dioxide] to `CN1C(C(=O)N[C@H](C=O)CCCCNS(=O)(=O)c2ccccc2)Cc2cc3c(cc2S1(=O)=O)OCCO3` (stereo partly drawn) [Cpd 12y, Nα -(3,4-Dihydro-6,7-ethylenedioxy-2-methyl-2H-1,2-benzothiazine-3-carbonyl)-L-Nε -(benzenesulfonyl)lysinal 1,1-dioxide], the IC50 rises from 0.03 µM to 0.107 µM (3.6-fold). The first is the more potent here.

Compared with `CCNC(=O)C(=O)[C@H](Cc1ccccc1)NC(=O)C1Cc2cc(Cl)ccc2S(=O)(=O)N1C` (stereo partly drawn) [Cpd 14A, N-Ethyl-3-(6-chloro-3,4-dihydro-2-methyl-2H-1,2-benzothiazine-3-carboxamido)-2-oxo-3-(S)-benzylpropanamide 1,1-dioxide], `CN1C(C(=O)N[C@H](C=O)Cc2ccccc2)Cc2cc(Cl)ccc2S1(=O)=O` (stereo partly drawn) [Cpd 12q, N-(6-Chloro-3,4-dihydro-2-methyl-2H-1,2-benzothiazine-3-carbonyl)-L-phenylalaninal 1,1-dioxide] is 67-fold lower in IC50: roughly 1 µM for the first, 0.015 µM for the second. The second is the more potent here.

Compared with `CN1C(C(=O)N[C@H](C=O)Cc2ccccc2)Cc2ccccc2S1(=O)=O` (stereo partly drawn) [Cpd 12i, N-(3,4-Dihydro-2-methyl-2H-1,2-benzothiazine-3-carbonyl)-L-phenylalaninal 1,1-dioxide], `CN1C(C(=O)N[C@H](C=O)Cc2ccccc2)Cc2cc(N3CCOCC3)ccc2S1(=O)=O` (stereo partly drawn) [Cpd 12z, N-(3,4-Dihydro-6-(4-morpholino)-2-methyl-2H-1,2-benzothiazine-3-carbonyl)-L-phenylalaninal 1,1-dioxide] is 18-fold higher in IC50: 0.028 µM for the first, roughly 0.5 µM for the second. The first is the more potent here.

Going from `COc1cc2c(cc1OC)S(=O)(=O)OC(C(=O)N[C@H](C=O)CC(C)C)C2` (stereo partly drawn) [Cpd 12a, N-(3,4-Dihydro-6,7-dimethoxy-2,1-benzoxathiin-3-carbonyl)-L-leucinal 1,1-dioxide] to `COc1cc2c(cc1OC)S(=O)(=O)NC(C(=O)N[C@H](C=O)Cc1ccccc1)C2` (single isomer, unassigned) [Cpd 12d, N-(3,4-Dihydro-6,7-dimethoxy-2H-1,2-benzothiazine-3-carbonyl)-L-phenylalaninal 1,1-dioxide], the IC50 rises from 0.13 µM to roughly 0.7 µM (5.4-fold).

First: CC(C)CN1C(C(=O)N[C@H](C=O)Cc2ccccc2)Cc2cc(Cl)ccc2S1(=O)=O (stereo partly drawn) [Cpd 12n, N-(3,4-Dihydro-6-chloro-2-isobutyl-2H-1,2-benzothiazine-3-carbonyl)-L-phenylalaninal 1,1-dioxide]
Second: CN1C(C(=O)N[C@H](C=O)Cc2ccccc2)Cc2ccccc2S1(=O)=O (stereo partly drawn) [Cpd 12j, N-(3,4-Dihydro-2-methyl-2H-1,2-benzothiazine-3-carbonyl)-L-phenylalaninal 1,1-dioxide]
The IC50 of the first is 1.8-fold higher: roughly 0.2 µM for the first, 0.11 µM for the second.

`COc1cc2c(cc1OC)S(=O)(=O)N(Cc1ccccc1)C(C(=O)N[C@H](C=O)Cc1ccccc1)C2` (stereo partly drawn) [Cpd 12h, N-(2-Benzyl-3,4-dihydro-6,7-dimethoxy-2H-1,2-benzothiazine-3-carbonyl)-L-phenylalaninal 1,1-dioxide] and `COc1cc2c(cc1OC)S(=O)(=O)N(C)C(C(=O)N[C@H](C=O)Cc1ccccc1)C2` (stereo partly drawn) [Cpd 12e, N-(3,4-Dihydro-6,7-dimethoxy-2-methyl-2H-1,2-benzothiazine-3-carbonyl)-L-phenylalaninal 1,1-dioxide] are within 1.5-fold of each other in IC50: 0.15 µM for the first, 0.2 µM for the second.

`COc1cc2c(cc1OC)S(=O)(=O)N(Cc1ccccc1)C(C(=O)N[C@H](C=O)Cc1ccccc1)C2` (stereo partly drawn) [Cpd 12g, N-(2-Benzyl-3,4-dihydro-6,7-dimnethoxy-2H-1,2-benzothiazine-3-carbonyl)-L-phenylalaninal 1,1-dioxide] gave an IC50 of roughly 1 µM.

Same assay, conditions: Table III; calpain I, 0.2 mM Succ-Leu-Tyr-MNA, pH 7.5; * mixture of diastereomers, a,b single diastereomers; read-out: IC50

`CCN1C(C(=O)N[C@@H](Cc2ccccc2)C(=O)C(=O)NCCNS(=O)(=O)c2ccc(Cl)c(Cl)c2)Cc2cc3c(cc2S1(=O)=O)OCCO3` (stereo partly drawn) [Cpd 14V, 3-((3,4-Dihydro-6,7-ethylenedioxy-2-ethyl-2H-1,2-benzothiazine-3-carbonyl)amino)-3-(S)-benzyl-2-oxo-N-(2-(3,4-dichlorobenzenesulfonylamino)ethyl)propanamide 1,1-dioxide] and `CCN1C(C(=O)N[C@@H](Cc2ccccc2)C(=O)C(=O)NCCNS(=O)(=O)c2ccccc2)Cc2cc3c(cc2S1(=O)=O)OCCO3` (stereo partly drawn) [Cpd 14X, 3-((3,4-Dihydro-6,7-ethylenedioxy-2-ethyl-2H-1,2-benzothiazine-3-carbonyl)amino)-3-(S)-benzyl-2-oxo-N-(2-(benzenesulfonylamino)ethyl)propanamide 1,1-dioxide] are within 1.5-fold of each other in IC50: 0.056 µM for the first, 0.04 µM for the second.

Going from `CCN1C(C(=O)N[C@@H](Cc2ccccc2)C(=O)C(=O)NCCNS(=O)(=O)c2ccc(-c3ccccn3)s2)Cc2cc3c(cc2S1(=O)=O)OCCO3` (stereo partly shown) [Cpd 14Y] to `CCN1C(C(=O)N[C@@H](Cc2ccccc2)C(=O)C(=O)NCCCNS(=O)(=O)c2ccccc2)Cc2cc3c(cc2S1(=O)=O)OCCO3` (stereo partly drawn) [Cpd 14AA, 3-((3,4-Dihydro-6,7-ethylenedioxy-2-ethyl-2H-1,2-benzothiazine-3-carbonyl)amino)-3-(S)-benzyl-2-oxo-N-(3-(benzenesulfonylamino)propyl)propanamide 1,1-dioxide], the IC50 rises from 0.02 µM to 0.035 µM (1.8-fold).

`O=C(NCCNS(=O)(=O)c1ccccc1)C(=O)[C@H](Cc1ccccc1)NC(=O)C1Cc2cc3c(cc2S(=O)(=O)N1)OCCO3` (stereo partly drawn) [Cpd 14AE, N-(2-(Benzenesulfonylamino)ethyl)-3-(3,4-Dihydro-6,7-ethylenedioxy-2H-1,2-benzothiazine-3-carboxamido)-2-oxo-3-(S)-benzylpropanamide 1,1-dioxide] and `CCN1C(C(=O)N[C@@H](Cc2ccccc2)C(=O)C(=O)NCCNS(C)(=O)=O)Cc2cc3c(cc2S1(=O)=O)OCCO3` (stereo partly shown) [Cpd 14S] are within 1.5-fold of each other in IC50: 0.076 µM for the first, 0.089 µM for the second.

Same assay, conditions: Table IV; calpain I, 0.2 mM Succ-Leu-Tyr-MNA, pH 7.5; read-out: IC50

`CCCCNC(=O)C(=O)[C@H](Cc1ccccc1)NC(=O)C1=Cc2cc3c(cc2S(=O)(=O)N1C)OCCO3` [Cpd 27e, 3-((6,7-Ethylenedioxy-2-methyl-2H-1,2-benzothiazine-3-carbonyl)amino)-3-(S)-benzyl-2-oxo-N-butylpropanamide 1,1-dioxide] was tested, and the IC50 was 0.21 µM.

Same assay, conditions: Table V; calpain I, 0.2 mM Succ-Leu-Tyr-MNA, pH 7.5; * mixture of diastereomers, a,b single diastereomers; read-out: IC50

In the case of `CCCN1c2ccccc2S(=O)(=O)N(CC)C1C(=O)N[C@H](C=O)Cc1ccccc1` (single isomer, unassigned) [Cpd 35b, N-(3,4-Dihydro-2-ethyl-4-propyl-2H-1,2,4-benzothiadiazine-3-carbonyl)-L-phenylalaninal 1,1-dioxide], the IC50 is reported as roughly 3 µM.

Same assay, conditions: Table VI; calpain I, 0.2 mM Succ-Leu-Tyr-MNA, pH 7.5; read-out: IC50

Compared with `O=C[C@H](Cc1ccccc1)NC(=O)C1=Nc2cc3c(cc2S(=O)(=O)N1)OCCO3` [Cpd 42b, N-(2H-6,7-Ethylenedioxy-1,2,4-benzothiadiazine-3-carbonyl)-L-phenylalaninal1,1-dioxide], `CCCCNC(=O)C(=O)[C@H](Cc1ccccc1)NC(=O)C1=Nc2cc3c(cc2S(=O)(=O)N1)OCCO3` [Cpd 42d, 3-((2H-6,7-Ethylenedioxy-1,2,4-benzothiadiazine-3-carbonyl)amino)-3-(S)-benzyl-2-oxo-N-butylpropanamide 1,1-dioxide] is 360-fold higher in IC50: 0.028 µM for the first, roughly 10 µM for the second. The first is the more potent here.

Same assay, conditions: Table VII; calpain I, 0.2 mM Succ-Leu-Tyr-MNA, pH 7.5; a,b single diastereomers; read-out: IC50

`O=C[C@H](Cc1ccccc1)NC(=O)C1Cc2ccccc2C(=O)N1` (single isomer, unassigned) [Cpd 50b, N-(1-Oxo-1,2,3,4-tetrahydroisoquinoline-3-carbonyl)-L-phenylalaninal] showed an IC50 of roughly 5 µM.
